Measured values published in patent publication US9873693B2 (Sunesis Pharmaceuticals, Inc., priority 2006, dated 2018).
Like-named read-outs stand apart in the source and are kept apart here.

What was measured:
[1] = tested on: phospho-akt (Thr308); test: phospho-akt (Thr308) MSD ELISA in PC-3 cells; format: cell-based; conditions: Homo sapiens; for EC50: PC-3, 2 h; for inhibition at 1 µM / inhibition at 10 µM: read-out: Percent Inhibition of phospho-Akt (308) By MSD ELISA
Method in brief: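 Read-out is MSD electrochemiluminescence after lysate capture overnight at 4 degrees and 1 hr RT detection-antibody step. Before lysis, overnight-plated PC-3 cells received three-fold serial dilutions of inhibitor in serum-free medium, with DMSO-only high controls.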

[2] = biological target: phosphorylated PDK1 (Homo sapiens (Human), UniProt O15530); test: PDK1 kinase assay (coupled PDK1/AKT/FAM-crosstide, IMAP); format: biochemical; conditions: 0.5 nM phosphorylated PDK1, 24 μM ATP; read-out: Inhibition of phospo-PDK1 in vitro IC50
[3] = PC-3 cells, 2 hours, no serum, read-out: Reduction of Cellular Levels of Akt p308 By MSD ELISA (EC50 μM)
[4] = PC-3 cells, 2 hours, no serum, read-out: Inhibition of P308 Akt in cells using MSD EC50
[5] = read-out: Inhibition of P308 Akt in cells using MSD EC50
[6] = read-out: Reduction of Cellular Levels of Akt p308 By MSD ELISA (EC50 μM)

Chain of phosphorylated PDK1 (O15530 51-360): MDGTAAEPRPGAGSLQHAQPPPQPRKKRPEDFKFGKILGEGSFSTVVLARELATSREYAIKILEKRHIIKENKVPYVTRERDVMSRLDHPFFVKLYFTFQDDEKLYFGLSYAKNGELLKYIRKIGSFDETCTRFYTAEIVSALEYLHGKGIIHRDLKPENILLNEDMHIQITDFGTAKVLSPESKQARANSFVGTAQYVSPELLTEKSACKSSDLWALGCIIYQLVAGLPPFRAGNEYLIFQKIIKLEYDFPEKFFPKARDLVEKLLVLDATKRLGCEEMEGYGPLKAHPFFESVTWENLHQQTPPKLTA

Compound	EC50 [1, 3] [µM]	inhibition at 1 µM ([1]; PC-3 cells) [%]	inhibition at 10 µM ([1]; PC-3 cells) [%]	IC50 [2] [µM]	EC50 [1, 4] [µM]	EC50 [1, 5] [µM]	EC50 [1, 6] [µM]
O=C1CCc2c(ncnc2-c2cccc(CNC(=O)c3cccn(Cc4ccc(F)c(F)c4)c3=O)c2)N1 [Cpd 240]	1 to 5	< 25	< 25	> 10	–	–	–
Nc1ncccc1-c1ccc(CNC(=O)c2cccn(Cc3ccc(F)c(F)c3)c2=O)s1 [Cpd 97]	–	–	–	< 0.5	1 to 5	–	–
O=C(Nc1n[nH]c2ccc(-c3c[nH]c4ncccc34)cc12)c1cccn(Cc2ccc(F)c(F)c2)c1=O [Cpd 245]	–	–	–	< 0.5	1 to 5	–	–
O=C1Nc2cc(/C=C/CNC(=O)c3cc(Cl)cn(Cc4cc(F)c(F)c(F)c4)c3=O)ccc2/C1=C/c1ncc[nH]1 [Cpd 197]	–	–	–	< 0.5	< 1	–	–
O=C(NC/C=C/c1ccc2[nH]c(=O)[nH]c2c1)c1cccn(Cc2ccc(F)c(F)c2)c1=O [Cpd 160]	–	–	–	< 0.5	> 5	–	–
CCNC(=O)c1cnc2[nH]cc(-c3ccc(CNC(=O)c4cccn(Cc5ccc(F)c(F)c5)c4=O)s3)c2c1 [Cpd 41]	< 1	–	–	< 0.5	< 1	–	–
O=C1Nc2cc(/C=C/CNC(=O)c3cccn(Cc4ccc(F)c(F)c4)c3=O)ccc2/C1=C/c1ncc[nH]1 [Cpd 199]	–	–	–	< 0.5	< 1	–	–
O=C(NCc1ccc(-c2c[nH]c3nccc(Cl)c23)s1)c1cccn(Cc2ccc(F)c(F)c2)c1=O [Cpd 55]	–	–	–	< 0.5	1 to 5	–	–
N#Cc1cnc2[nH]cc(-c3cccc(CNC(=O)c4cccn(Cc5ccc(F)c(F)c5)c4=O)c3)c2c1 [Cpd 244]	< 1	–	–	< 0.5	< 1	–	–
O=C(NCc1cccc(-c2c[nH]c3ncc(Cl)cc23)c1)c1cccn(Cc2ccc(F)c(F)c2)c1=O [Cpd 22]	1 to 5	–	–	< 0.5	1 to 5	–	–
O=C1Nc2cc(/C=C/CNC(=O)c3cccn(Cc4cc(F)c(F)c(F)c4)c3=O)ccc2/C1=C\c1nccs1 [Cpd 202]	–	–	–	< 0.5	1 to 5	–	–
O=C(NCc1cccc(-c2c[nH]c3ncc(-c4cccs4)cc23)c1)c1cccn(Cc2ccc(F)c(F)c2)c1=O [Cpd 51]	–	–	–	< 0.5	1 to 5	–	–
O=C(NC(COc1ccc2[nH]c(=O)[nH]c2c1)c1ccc(F)cc1)c1cccn(Cc2ccc(F)c(F)c2)c1=O (stereo not shown) [Cpd 147]	< 1	–	–	< 0.5	< 1	–	–
O=C(NCc1cccc(-c2n[nH]c3ncccc23)c1)c1cccn(Cc2ccc(F)c(F)c2)c1=O [Cpd 6]	–	25 to 75	25 to 75	< 0.5	1 to 5	–	–
CC(C)Oc1cc(CNC(=O)c2cccn(Cc3ccc(F)c(F)c3)c2=O)cc(-c2c[nH]c3ncccc23)c1 [Cpd 25]	–	–	–	< 0.5	–	< 1	< 1
COCCNC(=O)C[C@@H](NC(=O)c1cccn(Cc2ccc(F)c(F)c2)c1=O)c1ccc(-c2c[nH]c3ncccc23)s1 [Cpd 34]	1 to 5	–	–	< 0.5	1 to 5	–	–
O=C(NCc1cccc(-c2c[nH]c3ncccc23)c1)c1cccn(Cc2ccc(F)c(F)c2)c1=O [Cpd 126]	< 1	–	–	< 0.5	1 to 5	–	–
O=C(N[C@@H](COc1ccc2[nH]c(=O)[nH]c2c1)c1ccccc1)c1cccn(Cc2cc(F)c(F)c(F)c2)c1=O [Cpd 174]	–	–	–	< 0.5	–	1 to 5	–
C[C@@H](c1ccc(Cl)cc1)n1cc(Cl)cc(C(=O)NCc2noc(-c3c[nH]c4ncccc34)n2)c1=O [Cpd 315]	–	25 to 75	> 75	< 0.5	< 1	–	–
O=C(NCc1ccc(-c2ccc3cn[nH]c3c2)s1)c1cccn(Cc2ccc(F)c(F)c2)c1=O [Cpd 59]	–	–	–	< 0.5	1 to 5	–	–
NC(=O)c1cnc2[nH]cc(-c3cccc(CNC(=O)c4cccn(Cc5ccc(F)c(F)c5)c4=O)c3)c2c1 [Cpd 26]	< 1	–	–	< 0.5	< 1	–	–
O=C(NCc1cccc(-c2c[nH]c3ncc(Br)cc23)c1)c1cccn(Cc2ccc(F)c(F)c2)c1=O [Cpd 330]	–	–	–	< 0.5	1 to 5	–	–

Compound	EC50 [1, 3] [µM]	inhibition at 1 µM ([1]; PC-3 cells) [%]	inhibition at 10 µM ([1]; PC-3 cells) [%]	IC50 [2] [µM]	EC50 [1, 4] [µM]	EC50 [1, 5] [µM]	EC50 [1, 6] [µM]
O=C(NC(C(=O)O)c1ccc(-c2c[nH]c3ncccc23)s1)c1cccn(Cc2ccc(F)c(F)c2)c1=O (stereo not shown) [Cpd 335]	> 5	–	–	0.5 to 10	–	–	–
CCNC(=O)c1cnc2[nH]cc(-c3cccc(CNC(=O)c4cccn(Cc5ccc(F)c(F)c5)c4=O)c3)c2c1 [Cpd 28]	< 1	–	–	< 0.5	< 1	–	–
O=C(NCc1cccc(-c2c[nH]c3ncc(-c4ccncc4)cc23)c1)c1cccn(Cc2ccc(F)c(F)c2)c1=O [Cpd 48]	–	–	–	< 0.5	< 1	–	–
O=C(C[C@@H](NC(=O)c1cccn(Cc2ccc(F)c(F)c2)c1=O)c1ccc(-c2c[nH]c3ncccc23)s1)NC1CC1 [Cpd 33]	1 to 5	–	–	< 0.5	1 to 5	–	–
O=C(NCc1cccc(-c2c[nH]c3ncc(-c4ccoc4)cc23)c1)c1cccn(Cc2ccc(F)c(F)c2)c1=O [Cpd 53]	–	–	–	< 0.5	< 1	–	–
O=C(NCc1nccc(-c2c[nH]c3ncccc23)n1)c1cccn(Cc2ccc(F)c(F)c2)c1=O [Cpd 146]	1 to 5	–	–	< 0.5	> 5	–	–
O=C1Nc2cc(/C=C/CNC(=O)c3cccn(Cc4cc(F)c(F)c(F)c4)c3=O)ccc2/C1=C\c1ccc(O)cc1 [Cpd 201]	–	–	–	< 0.5	< 1	–	–
O=C1Nc2cc(/C=C/CNC(=O)c3cccn(Cc4cc(F)c(F)c(F)c4)c3=O)ccc2/C1=C\c1ccccc1 [Cpd 209]	–	–	–	< 0.5	> 5	–	–
CC(C)Oc1cc(CNC(=O)c2cccn(Cc3ccc(F)c(F)c3)c2=O)cc(-c2c[nH]c3ncc(F)cc23)c1 [Cpd 98]	–	–	–	< 0.5	1 to 5	–	–
O=C(NCc1cc(-c2c[nH]c3ncccc23)ccc1F)c1cccn(Cc2ccc(F)c(F)c2)c1=O [Cpd 278]	–	< 25	25 to 75	< 0.5	–	–	–
O=C(O)c1cnc2[nH]cc(-c3cccc(CNC(=O)c4cccn(Cc5ccc(F)c(F)c5)c4=O)c3)c2c1 [Cpd 20]	> 5	–	–	< 0.5	–	–	–
CCCNC(=O)C[C@@H](NC(=O)c1cccn(Cc2ccc(F)c(F)c2)c1=O)c1ccc(-c2c[nH]c3ncccc23)s1 [Cpd 32]	–	–	–	< 0.5	–	1 to 5	1 to 5
O=C(Cc1cccc(C2CNc3ncccc32)c1)Nc1cccn(Cc2ccc(F)c(F)c2)c1=O (stereo not shown) [Cpd 44]	–	–	–	< 0.5	1 to 5	–	–
O=C1Nc2cc(/C=C/CNC(=O)c3cccn(Cc4cc(F)c(F)c(F)c4)c3=O)ccc2/C1=C/c1cnc[nH]1 [Cpd 212]	–	–	–	< 0.5	1 to 5	–	–
O=C(NCc1cccc(-c2c[nH]c3cccnc23)c1)c1cccn(Cc2ccc(F)c(F)c2)c1=O [Cpd 241]	–	< 25	25 to 75	0.5 to 10	–	–	–
CNC(=O)c1cc(-c2c[nH]c3ncccc23)cc(CNC(=O)c2cccn(Cc3ccc(F)c(F)c3)c2=O)n1 [Cpd 180]	–	–	–	< 0.5	< 1	–	–
O=C(NCc1cc(OCCN2CCOCC2)cc(-c2c[nH]c3ncccc23)c1)c1cccn(Cc2ccc(F)c(F)c2)c1=O [Cpd 56]	–	–	–	< 0.5	1 to 5	–	–
O=C(NCc1cccc(-c2c[nH]c3nccnc23)c1)c1cccn(Cc2ccc(F)c(F)c2)c1=O [Cpd 13]	–	25 to 75	> 75	< 0.5	1 to 5	–	–
CN(C)C(=O)c1cc(-c2c[nH]c3ncccc23)cc(CNC(=O)c2cccn(Cc3ccc(F)c(F)c3)c2=O)n1 [Cpd 181]	–	–	–	< 0.5	1 to 5	–	–
CCNC(=O)C[C@@H](NC(=O)c1cccn(Cc2ccc(F)c(F)c2)c1=O)c1ccc(-c2c[nH]c3ncccc23)s1 [Cpd 31]	1 to 5	–	–	< 0.5	1 to 5	–	–
O=C(NCc1cc(O)cc(-c2c[nH]c3ncccc23)c1)c1cccn(Cc2ccc(F)c(F)c2)c1=O [Cpd 49]	–	–	–	< 0.5	1 to 5	–	–
